Data reported in patent publication US10780074B2, “Compounds and uses thereof” (Sunovion Pharmaceuticals Inc., priority 2017, dated 2020).
Where a name gives a salt, the structure may show the parent alone. Read-outs that look alike come from different tables or passages of the source.

Test system: behaviors of compound-treated mice
Experiment: Neuropharmacological Assay (SmartCube)
Assay type: in vivo
Settings: for minimal effective dose: Mus musculus, ip, 0.25 h, dose having 50% or more total activity in SmartCube, read-out: MED (minimal effective dose)
How it was run: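 Mice dosed i.p. 15 min before testing, with compound in N-methyl-2-pyrrolidone/PEG/propylene glycol, were video-recorded and algorithmically compared with reference-drug behavioral signatures. This gave class-match probabilities (antidepressant, anxiolytic, etc.) at the most efficacious of 3 doses. MED was defined as the dose with ≥50% total activity, usually tested across 0.3–30 mpk.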

[1] = i.p. 15 min before behavioral test, most efficacious dose(s) of 3 doses
[2] = SmartCube, i.p. 15 min before test, most efficacious dose(s)

Row | Structure (SMILES) | minimal effective dose (i.p.) | AD: ADHD (probability that activity matches class) [1] | AG: analgesic (probability that activity matches class) [1] | AX: anxiolytic (probability that activity matches class) [1] | CE: cognitive enhancer (probability that activity matches class) [1] | DP: anti-depressant (probability that activity matches class) [1] | MS: mood stabilizer (probability that activity matches class) [1] | PS: anti-psychotic (probability that activity matches class) [1] | SD: sedative hypnotic (probability that activity matches class) [1] | UN: uncharacterized CNS activity (probability that activity matches class) [1] | minimal effective dose | AD: ADHD (probability that activity matches class) [2] | AG: analgesic (probability that activity matches class) [2] | AX: anxiolytic (probability that activity matches class) [2] | CE: cognitive enhancer (probability that activity matches class) [2] | DP: anti-depressant (probability that activity matches class) [2] | MS: mood stabilizer (probability that activity matches class) [2] | PS: anti-psychotic (probability that activity matches class) [2] | SD: sedative hypnotic (probability that activity matches class) [2] | UN: uncharacterized CNS activity (probability that activity matches class) [2]
1 | CNC[C@H]1OCCc2c(-c3ccccc3)cccc21 (single isomer, unassigned) [Compound 129, hydrochloride salt] | 3 to 10 mg/kg | + (LOQ ≤ + <5%) | + (LOQ ≤ + <5%) | + (LOQ ≤ + <5%) | ++ (5% ≤ ++ <25%) | ++++ (50% ≤ ++++) | + (LOQ ≤ + <5%) | + (LOQ ≤ + <5%) | ++ (5% ≤ ++ <25%) | + (LOQ ≤ + <5%) | – | – | – | – | – | – | – | – | – | –
2 | CNC[C@@H]1OCCc2c(-c3cccnc3)cccc21 (single isomer, unassigned) [Compound 7, bis-hydrochloride] | 10 to 30 mg/kg | ++ (5% ≤ ++ <25%) | + (LOQ ≤ + <5%) | ++ (5% ≤ ++ <25%) | + (LOQ ≤ + <5%) | +++ (25% ≤ +++ <50%) | + (LOQ ≤ + <5%) | + (LOQ ≤ + <5%) | + (LOQ ≤ + <5%) | + (LOQ ≤ + <5%) | – | – | – | – | – | – | – | – | – | –
3 | CNC[C@@H]1OCCc2c(-c3ccccn3)cccc21 (single isomer, unassigned) [Compound 43, hydrochloride salt] | 10 to 30 mg/kg | + (LOQ ≤ + <5%) | + (LOQ ≤ + <5%) | ++ (5% ≤ ++ <25%) | + (LOQ ≤ + <5%) | ++ (5% ≤ ++ <25%) | + (LOQ ≤ + <5%) | + (LOQ ≤ + <5%) | + (LOQ ≤ + <5%) | +++ (25% ≤ +++ <50%) | – | – | – | – | – | – | – | – | – | –
4 | NC[C@@H]1OCCc2c(-c3ccncc3)cccc21 [Compound 19, (R)-(5-(Pyridin-4-yl)isochroman-1-yl)methanamine hydrochloride salt] | > 30 mg/kg | + (LOQ ≤ + <5%) | ++ (5% ≤ ++ <25%) | ++ (5% ≤ ++ <25%) | ++ (5% ≤ ++ <25%) | ++ (5% ≤ ++ <25%) | + (LOQ ≤ + <5%) | + (LOQ ≤ + <5%) | + (LOQ ≤ + <5%) | + (LOQ ≤ + <5%) | – | – | – | – | – | – | – | – | – | –
5 | NC[C@@H]1OCCc2c(-c3c[nH]cn3)cccc21 (single isomer, unassigned) [Compound 112, hydrochloride salt] | 10 to 30 mg/kg | + (LOQ ≤ + <5%) | + (LOQ ≤ + <5%) | ++ (5% ≤ ++ <25%) | + (LOQ ≤ + <5%) | ++ (5% ≤ ++ <25%) | + (LOQ ≤ + <5%) | + (LOQ ≤ + <5%) | + (LOQ ≤ + <5%) | + (LOQ ≤ + <5%) | – | – | – | – | – | – | – | – | – | –
6 | CNC[C@H]1OCCc2c(-c3ncco3)cccc21 [Compound 105, (S)—N-methyl-1-(5-(oxazol-2-yl)isochroman-1-yl)methanamine dihydrochloride] | 3 to 10 mg/kg | + (LOQ ≤ + <5%) | + (LOQ ≤ + <5%) | + (LOQ ≤ + <5%) | + (LOQ ≤ + <5%) | ++++ (50% ≤ ++++) | + (LOQ ≤ + <5%) | + (LOQ ≤ + <5%) | + (LOQ ≤ + <5%) | ++ (5% ≤ ++ <25%) | – | – | – | – | – | – | – | – | – | –
7 | NC[C@H]1OCCc2c(-c3ccncc3)cccc21 [Compound 20, (S)-(5-(Pyridin-4-yl)isochroman-1-yl)methanamine hydrochloride salt] | ≤ 3 mg/kg | ++ (5% ≤ ++ <25%) | ++ (5% ≤ ++ <25%) | ++ (5% ≤ ++ <25%) | + (LOQ ≤ + <5%) | ++++ (50% ≤ ++++) | + (LOQ ≤ + <5%) | + (LOQ ≤ + <5%) | + (LOQ ≤ + <5%) | ++++ (50% ≤ ++++) | – | – | – | – | – | – | – | – | – | –
8 | NC[C@H]1OCCc2c(-c3cnco3)cccc21 (single isomer, unassigned) [Compound 99, hydrochloride salt] | ≤ 3 mg/kg | + (LOQ ≤ + <5%) | ++ (5% ≤ ++ <25%) | ++ (5% ≤ ++ <25%) | ++ (5% ≤ ++ <25%) | + (LOQ ≤ + <5%) | + (LOQ ≤ + <5%) | + (LOQ ≤ + <5%) | ++ (5% ≤ ++ <25%) | +++ (25% ≤ +++ <50%) | – | – | – | – | – | – | – | – | – | –
9 | NC[C@H]1OCCc2c(-c3cnccn3)cccc21 (single isomer, unassigned) [Compound 83, hydrochloride salt] | 3 to 10 mg/kg | ++ (5% ≤ ++ <25%) | + (LOQ ≤ + <5%) | ++ (5% ≤ ++ <25%) | + (LOQ ≤ + <5%) | ++++ (50% ≤ ++++) | + (LOQ ≤ + <5%) | + (LOQ ≤ + <5%) | + (LOQ ≤ + <5%) | + (LOQ ≤ + <5%) | – | – | – | – | – | – | – | – | – | –
10 | CNC[C@@H]1OCCc2ccc(-c3cncnc3)cc21 (single isomer, unassigned) [Compound 26, hydrochloride] | > 30 mg/kg | + (LOQ ≤ + <5%) | + (LOQ ≤ + <5%) | + (LOQ ≤ + <5%) | + (LOQ ≤ + <5%) | + (LOQ ≤ + <5%) | + (LOQ ≤ + <5%) | + (LOQ ≤ + <5%) | + (LOQ ≤ + <5%) | + (LOQ ≤ + <5%) | – | – | – | – | – | – | – | – | – | –
11 | CNC[C@H]1OCCc2c1cccc2-n1ccnc1 [Compound 183, (S)-1-(5-(1H-Imidazol-1-yl)isochroman-1-yl)-N-methylmethanamine hydrochloride salt] | – | – | – | – | – | – | – | – | – | – | 3 to 10 mg/kg | + (LOQ ≤ + <5%) | + (LOQ ≤ + <5%) | + (LOQ ≤ + <5%) | + (LOQ ≤ + <5%) | ++++ (50% ≤ ++++) | + (LOQ ≤ + <5%) | + (LOQ ≤ + <5%) | + (LOQ ≤ + <5%) | ++ (5% ≤ ++ <25%)
12 | CNC[C@@H]1OCCc2c(-c3ncccn3)cccc21 [Compound 24, (R)—N-Methyl-1-(5-(pyrimidin-2-yl)isochroman-1-yl)methanamine hydrochloride] | > 30 mg/kg | + (LOQ ≤ + <5%) | + (LOQ ≤ + <5%) | ++ (5% ≤ ++ <25%) | + (LOQ ≤ + <5%) | + (LOQ ≤ + <5%) | + (LOQ ≤ + <5%) | + (LOQ ≤ + <5%) | + (LOQ ≤ + <5%) | ++ (5% ≤ ++ <25%) | – | – | – | – | – | – | – | – | – | –
13 | NC[C@@H]1OCCc2c(-c3cnccn3)cccc21 (single isomer, unassigned) [Compound 82, hydrochloride salt] | 10 to 30 mg/kg | + (LOQ ≤ + <5%) | + (LOQ ≤ + <5%) | ++ (5% ≤ ++ <25%) | + (LOQ ≤ + <5%) | + (LOQ ≤ + <5%) | + (LOQ ≤ + <5%) | + (LOQ ≤ + <5%) | + (LOQ ≤ + <5%) | + (LOQ ≤ + <5%) | – | – | – | – | – | – | – | – | – | –
